ChEMBL document CHEMBL5390265, “Design, Synthesis, and Pharmacological Evaluation of Multisubstituted Pyrido[4,3-d]pyrimidine Analogues Bearing Deuterated Methylene Linkers as Potent KRASG12D Inhibitors” (J Med Chem, 2023)
Activity calls are given as the source filed them. The rule behind the calls is not given here.

Key:
[1] = Clearance in Sprague-Dawley rat at 1 mg/kg,iv measured upto 24 hrs by LC-MS/MS analysis; format: ADME, organism-based; details: in vivo
[2] = Half life in Sprague-Dawley rat at 1 mg/kg,iv measured upto 24 hrs by LC-MS/MS analysis; format: ADME, organism-based; details: in vivo
[3] = AUC in Sprague-Dawley rat at 1 mg/kg,iv measured upto 24 hrs by LC-MS/MS analysis; format: ADME, organism-based; design: dose 1 mg/kg, time < 24 hrs, route iv; details: in vivo
[4] = Inhibition of recombinant human His6-tagged KRAS4B G12D mutant incubated for 1 hr by HTRF assay
ASPC1 [5] = test: Antitumor activity against human ASPC1 cells xenografted in mouse assessed as inhibition of tumor growth at 20 mg/kg,ip administrated twice daily for 20 consecutive days relative to control; format: functional; details: read-out: TGI
GTPase KRas [6] = target: T1, GTPase KRas (Homo sapiens, UniProt P01116); test: Inhibition of recombinant human GTP-bound KRAS wild type (1 to 169 residues) incubated for 1 hr by HTRF assay
ASPC1 [7] = test: Antiproliferative activity against human ASPC1 cells harboring […] assessed as inhibition of cell growth incubated for 5 days by crystal violet staining analysis; format: functional, cell-based; details: Homo sapiens, ASPC1, 120 h
ASPC1 [8] = test: Antitumor activity against human ASPC1 cells xenografted in mouse assessed as inhibition of tumor growth at 10 mg/kg,ip administrated twice daily for 20 consecutive days relative to control; format: functional; details: read-out: TGI
NCI-H1299 = test: Antiproliferative activity against human NCI-H1299 cells harboring KRAS wild type assessed as inhibition of cell growth incubated for 5 days by crystal violet staining analysis; format: functional, cell-based; details: NCI-H1299, 120 h
A549 = test: Antiproliferative activity against human A549 cells harboring […] assessed as inhibition of cell growth incubated for 5 days by crystal violet staining analysis; format: functional, cell-based; details: Homo sapiens, A549, 120 h
AGS [9] = test: Antiproliferative activity against human AGS cells harboring […] assessed as inhibition of cell growth incubated for 5 days by crystal violet staining analysis; format: functional, cell-based; details: Homo sapiens, AGS, 120 h
GTPase KRas [10] = target: T1, GTPase KRas; test: Inhibition of KRAS in human AGS cells assessed as downregulation of ERK phosphorylation at 0.65 nM incubated for 3 hrs by immunoblotting analysis; format: cell-based; details: tested as the 2H-labelled form
ASPC1 [11] = test: Antitumor activity against human ASPC1 cells xenografted in mouse assessed as inhibition of ERK phosphorylation level at 20 mg/kg,ip administrated twice daily for 20 consecutive days by immunoblotting analysis; format: functional, organism-based; details: tested as the 2H-labelled form
GTPase KRas [12] = target: T1, GTPase KRas; test: Inhibition of KRAS in human AGS cells assessed as downregulation of AKT phosphorylation incubated for 3 hrs by immunoblotting analysis; format: cell-based; details: tested as the 2H-labelled form
ASPC1 [13] = test: Antitumor activity against human ASPC1 cells xenografted in mouse assessed as inhibition of AKT phosphorylation level at 20 mg/kg,ip administrated twice daily for 20 consecutive days by immunoblotting analysis; format: functional, organism-based; details: tested as the 2H-labelled form
ASPC1 [14] = test: Antitumor activity against human ASPC1 cells xenografted in mouse assessed as inhibition of ERK phosphorylation level at 10 mg/kg,ip administrated twice daily for 20 consecutive days by immunoblotting analysis; format: functional, organism-based; details: tested as the 2H-labelled form
ASPC1 [15] = test: Antitumor activity against human ASPC1 cells xenografted in mouse assessed as inhibition of Ki-67 expression level at 20 mg/kg,ip administrated twice daily for 20 consecutive days by immunohistochemistry analysis; format: functional, organism-based; details: tested as the 2H-labelled form
GTPase KRas [16] = target: T1, GTPase KRas; test: Inhibition of KRAS in human ASPC1 cells assessed as downregulation of ERK phosphorylation at 0.65 nM incubated for 3 hrs by immunoblotting analysis; format: cell-based; details: tested as the 2H-labelled form
GTPase KRas [17] = target: T1, GTPase KRas; test: Inhibition of KRAS in human ASPC1 cells assessed as downregulation of ERK phosphorylation incubated for 3 hrs by immunoblotting analysis; format: cell-based; details: tested as the 2H-labelled form
GTPase KRas [18] = target: T1, GTPase KRas; test: Inhibition of KRAS in human ASPC1 cells assessed as downregulation of AKT phosphorylation incubated for 3 hrs by immunoblotting analysis; format: cell-based; details: tested as the 2H-labelled form
GTPase KRas [19] = target: T1, GTPase KRas; test: Inhibition of KRAS in human ASPC1 cells assessed as downregulation of ERK phosphorylation at 6.25 to 100 nM incubated for 3 hrs by immunoblotting analysis; format: cell-based; details: dose 6.25-100 nM, tested as the 2H-labelled form
GTPase KRas [20] = target: T1, GTPase KRas; test: Inhibition of KRAS in human AGS cells assessed as downregulation of ERK phosphorylation incubated for 3 hrs by immunoblotting analysis; format: cell-based; details: tested as the 2H-labelled form
ASPC1 [21] = test: Antitumor activity against human ASPC1 cells xenografted in mouse assessed as inhibition of Ki-67 expression level at 10 mg/kg,ip administrated twice daily for 20 consecutive days by immunohistochemistry analysis; format: functional, organism-based; details: tested as the 2H-labelled form
GTPase KRas [22] = target: T1, GTPase KRas; test: Inhibition of KRAS in human AGS cells assessed as downregulation of AKT phosphorylation at 0.65 nM incubated for 3 hrs by immunoblotting analysis; format: cell-based; details: tested as the 2H-labelled form
GTPase KRas [23] = target: T1, GTPase KRas; test: Inhibition of KRAS in human ASPC1 cells assessed as downregulation of AKT phosphorylation at 0.65 nM incubated for 3 hrs by immunoblotting analysis; format: cell-based; details: tested as the 2H-labelled form
ASPC1 [24] = test: Antitumor activity against human ASPC1 cells xenografted in mouse assessed as inhibition of AKT phosphorylation level at 10 mg/kg,ip administrated twice daily for 20 consecutive days by immunoblotting analysis; format: functional, organism-based; details: tested as the 2H-labelled form
[25] = Metabolic stability in rat liver microsomes assessed as half life at 150 uM measured after 60 mins in presence of NADPH by LC-MS/MS analysis; format: ADME, Microsome
[26] = Metabolic stability in rat liver microsomes assessed as intrinsic clearance at 150 uM measured after 60 mins in presence of NADPH by LC-MS/MS analysis; format: ADME, Microsome; details: read-out: CLH
AGS [27] = test: Induction of apoptosis in human AGS cells harboring […] assessed as late apoptotic cells at 25 uM incubated for 24 hrs by annexin V and propidium iodide staining based flow cytometry analysis (reference value: 7.74%); format: functional
[28] = Metabolic stability in monkey liver microsomes assessed as intrinsic clearance at 150 uM measured after 60 mins in presence of NADPH by LC-MS/MS analysis; format: ADME, Macaca mulatta, Microsome; details: rhesus monkey, read-out: CLH
ASPC1 [29] = test: Induction of apoptosis in human ASPC1 cells harboring […] assessed as late apoptotic cells at 25 uM incubated for 24 hrs by annexin V and propidium iodide staining based flow cytometry analysis (reference value: 6.96%); format: functional
[30] = Metabolic stability in monkey liver microsomes assessed as half life at 150 uM measured after 60 mins in presence of NADPH by LC-MS/MS analysis; format: ADME, Macaca mulatta, Microsome; details: rhesus monkey
ASPC1 [31] = test: Induction of apoptosis in human ASPC1 cells harboring […] assessed as early apoptotic cells at 25 uM incubated for 24 hrs by annexin V and propidium iodide staining based flow cytometry analysis (reference value: 5.22%); format: functional
AGS [32] = test: Induction of apoptosis in human AGS cells harboring […] assessed as early apoptotic cells at 25 uM incubated for 24 hrs by annexin V and propidium iodide staining based flow cytometry analysis (reference value: 4.05%); format: functional
[33] = Toxicity in mouse xenografted with human ASPC1 cells assessed as serum blood urea nitrogen level at 20 mg/kg,ip administrated twice daily for 20 consecutive days (reference value: 16.3 +/- 1.6 mmol/L); format: organism-based; details: in vivo
[34] = Metabolic stability in dog liver microsomes assessed as intrinsic clearance at 150 uM measured after 60 mins in presence of NADPH by LC-MS/MS analysis; format: ADME, Canis lupus familiaris, Microsome; details: read-out: CLH
[35] = Toxicity in mouse xenografted with human ASPC1 cells assessed as serum creatinine level at 20 mg/kg,ip administrated twice daily for 20 consecutive days (reference value: 28.2 +/- 2.1 umol/L); format: organism-based; details: in vivo
[36] = Metabolic stability in dog liver microsomes assessed as half life at 150 uM measured after 60 mins in presence of NADPH by LC-MS/MS analysis; format: ADME, Canis lupus familiaris, Microsome

Row | Compound | clearance [1] | half-life [2] | AUC at 24 h [3] | IC50 [4] | IC50 (ASPC1 [7]) | IC50 (NCI-H1299) | IC50 (A549) | IC50 (AGS [9]) | inhibition (GTPase KRas [10]) | inhibition (GTPase KRas [12]) | inhibition (GTPase KRas [17]) | inhibition (GTPase KRas [18]) | inhibition (GTPase KRas [20]) | inhibition in vivo at 20 mg/kg (ASPC1 [5]) | Activity (ASPC1 [11]) | Activity (ASPC1 [13]) | Activity (ASPC1 [14]) | Activity (ASPC1 [15]) | Activity (ASPC1 [21]) | Activity (ASPC1 [24]) | also measured
1 | [2H]C([2H])(Oc1nc(NCC2(N(C)C)CCC2)c2cnc(-c3cc(O)cc4ccc(F)c(C#C)c34)c(F)c2n1)C12CCCN1CC(=C(F)F)C2 (configuration not stated) | 33.4 mL/min/kg | 6.91 h | 562 ng·h/mL | 1.21 nM | 1.7 nM | 1820 nM | 499 nM | 0.6 nM |  |  |  |  |  | 68.4% |  |  |  |  |  |  | IC50 (GTPase KRas [6]): 18.5 nM; inhibition in vivo at 10 mg/kg (ASPC1 [8]): 54.7%
2 | C#Cc1c(F)ccc2cc(O)cc(-c3ncc4c(NCC5(N(C)C)CCC5)nc(OCC56CCCN5CC(=C(F)F)C6)nc4c3F)c12 (configuration not stated) |  |  |  |  |  |  |  |  |  | Dose-Dependent Effect | Dose-Dependent Effect | Dose-Dependent Effect | Dose-Dependent Effect |  | Active | Active | Active | Active | Active | Active | 

Second part, led by results:

Row | clearance [1] | half-life [2] | AUC at 24 h [3] | IC50 [4] | IC50 (ASPC1 [7]) | IC50 (NCI-H1299) | IC50 (A549) | IC50 (AGS [9]) | inhibition (GTPase KRas [10]) | inhibition (GTPase KRas [12]) | inhibition (GTPase KRas [17]) | inhibition (GTPase KRas [18]) | inhibition (GTPase KRas [20]) | Compound | inhibition in vivo at 20 mg/kg (ASPC1 [5]) | Activity (ASPC1 [11]) | Activity (ASPC1 [13]) | Activity (ASPC1 [14]) | Activity (ASPC1 [15]) | Activity (ASPC1 [21]) | Activity (ASPC1 [24]) | also measured
3 |  |  |  |  |  |  |  |  | Active | Dose-Dependent Effect | Dose-Dependent Effect | Dose-Dependent Effect | Dose-Dependent Effect | C#Cc1c(F)ccc2cc(O)cc(-c3ncc4c(N5C[C@H]6CC[C@@H](C5)N6)nc(OCC56CCCN5CC(=C(F)F)C6)nc4c3F)c12 (some centres not stated) |  | Active | Active | Active | Active | Active | Active | inhibition (GTPase KRas [16]): Active; inhibition (GTPase KRas [19]): > 90%; inhibition (GTPase KRas [22]): Active; inhibition (GTPase KRas [23]): Active
4 | 91.7 mL/min/kg | 1.1 h | 188 ng·h/mL | 1.24 nM | 7.9 nM | > 5000 nM | > 5000 nM | 1.4 nM |  |  |  |  |  | C#Cc1c(F)ccc2cc(O)cc(-c3ncc4c(N5C[C@H]6CC[C@@H](C5)N6)nc(OC[C@@]56CCCN5C[C@H](F)C6)nc4c3F)c12 | 73.3% |  |  |  |  |  |  | half-life at 150 µM [25]: 2.88 h; microsomal CLint at 150 µM [26]: 8 µL/min/mg; Activity (AGS [27]): 10.4%; microsomal CLint at 150 µM [28]: 40.6 µL/min/mg; Activity (ASPC1 [29]): 12.1%; half-life at 150 µM [30]: 0.568 h; Activity (ASPC1 [31]): 8.65%; Activity (AGS [32]): 9.27%; Activity [33]: 14 mmol/L; microsomal CLint at 150 µM [34]: 16.8 µL/min/mg; Activity [35]: 24.7 µmol/L; half-life at 150 µM [36]: 1.38 h
5 |  |  |  |  |  |  |  |  | Active | Dose-Dependent Effect | Dose-Dependent Effect | Dose-Dependent Effect | Dose-Dependent Effect | C#Cc1c(F)ccc2cc(N)cc(-c3ncc4c(N5C[C@H]6CC[C@@H](C5)N6)nc(OCC56CCCN5CC(=C(F)F)C6)nc4c3F)c12 (some centres not stated) |  | Active | Active | Active | Active | Active | Active | inhibition (GTPase KRas [16]): Active; inhibition (GTPase KRas [19]): > 90%; inhibition (GTPase KRas [22]): Active; inhibition (GTPase KRas [23]): Active
